Source: PMC5558686 (British Journal of Cancer, 2017)
Where a name gives a salt, the structure may show the parent alone.

Legend:
UACC 903 cells [1] = assay: Cholesterol localisation assay; assay type: cell-based; details: after 6 h
UACC 903 cells [2] = assay: Co-treatment with necrosis inhibitors IM-54 / Necrostatin-5, viability; assay type: cell-based; details: IM-54 and Necrostatin-5
[3] = system: UACC 903 xenografted tumours; assay: Xenografted melanoma tumour growth; assay type: in vivo, athymic-Foxn1−/− (nude) mice; details: for reduction of tumour growth / tumour inhibition: oral administration, UACC 903 xenograft, day 22
UACC 903 cells [4] = assay: Western blot of autophagic flux markers LC3B and p62/SQSTM1; assay type: cell-based
[5] = system: UACC 903, 1205 Lu and A2058 tumour development; assay: Xenografted melanoma tumour growth; assay type: in vivo, athymic-Foxn1−/− (nude) mice; details: for tumour weights lower than control groups: end of treatment, Figure 2E and H (UACC 903 and A2058); for decrease in tumour development: oral, perphenazine 50 mg kg^−1 or fluphenazine 25 mg kg^−1 at 4-day intervals
[6] = CNS related sedation, video surveillance; assay type: in vivo, Swiss Webster mice; details: for onset of sedation after oral administration / persistence of sedation: xenograft mice, oral
[7] = Body weight of treated mice; assay type: in vivo; details: for loss of body weight: xenograft mice, 2 days after oral drug treatments
UACC 903 cells [8] = assay: Co-treatment with apoptosome inhibitor NS3694, viability; assay type: cell-based; details: 50 μMol/l NS-3694 co-treatment
[9] = system: BAX-knockout HCT116 cells; assay: Viability of BAX-knockout HCT116 cells; assay type: cell-based, human; details: 24 h, increasing concentrations
Serum toxicity markers = assay type: in vivo, mice; details: serum at end of oral treatment
[10] = H&E histology of major organs; assay type: in vivo, mice; details: oral treatment
UACC 903 cells [11] = assay: Mitochondrial membrane potential; assay type: cell-based
prostate cancer = details: phase-2; ref Clinical Trial Id: NCT00417274; cited from earlier work
UACC 903 cells [12] = assay: Caspase-dependence, z-VAD-fmk pre-treatment, viability; assay type: cell-based; details: z-VAD-fmk 20 μmol l^−1, 1 h pre-treatment; TRAIL 50 ng ml^−1

In the case of `CC(C)c1ccc2c(c1)CC[C@H]1[C@](C)(CN)CCC[C@]21C` [Leelamine], the “intracellular cholesterol accumulation (Filipin-III staining)” value (UACC 903 cells [1]) is reported as “intracellular cholesterol accumulation” and the “protection from cell death by necrosis inhibitors” value (UACC 903 cells [2]) is reported as “neither of the two necrosis inhibitors, IM-54 and Necrostatin-5, protected”.

With `CNCCC=C1c2ccccc2CCc2ccccc21` [Nortriptyline, Nortriptyline HCL] the “reduction of tumour growth / tumour inhibition” value [3] was 50% and the “LC3B and p62 protein levels (western blot)” value (shortened to “LC3B and p62 protein levels”) (UACC 903 cells [4]) was “dose-dependent accumulation of LC3B and p62 proteins”.

With `OCCN1CCN(CCCN2c3ccccc3Sc3ccc(C(F)(F)F)cc32)CC1` [Fluphenazine] the “tumour weights lower than control groups” value [5] was 40–60%, the “decrease in tumour development” value [5] was 40–60% and the “onset of sedation after oral administration” value [6] was “Thirty to sixty minutes”. For the same molecule, the persistence of sedation [6] was over 24 h, the “loss of body weight” value [7] was 10% and the “LC3B and p62 protein levels” value (UACC 903 cells [4]) was “dose-dependent accumulation of LC3B and p62 proteins”. For the same molecule, the “protection from cell death by NS-3694” value (UACC 903 cells [8]) was “partially protected”.

With `CCN(CC)CCO[C@H]1CC[C@@]2(C)C(=CC[C@@H]3[C@@H]2CC[C@]2(C)C(=O)CC[C@@H]32)C1.Cl` [U18666A, U-18666A] the “intracellular cholesterol accumulation (Filipin-III staining)” value (UACC 903 cells [1]) was “intracellular cholesterol accumulation”.

In the case of `OCCN1CCN(CCCN2c3ccccc3Sc3ccc(Cl)cc32)CC1` [Perphenazine], the “sensitivity of BAX-knockout compared with wild-type HCT116 cells” value [9] is reported as “more resistant”, the “inhibition of UACC 903 tumour development by the free drug” value ([3]; 12.5 or 25 mg kg^−1, orally every other day) is reported as “ineffective” and the “reduction of tumour growth / tumour inhibition” value [3] is reported as 60%. For the same molecule, the “mitotic figures in H&E stained tumour sections” value ([3]; tumours from treated animals) was “significant decrease in mitotic figure numbers”, the “tumour weights lower than control groups” value [5] was 40–60% and the “decrease in tumour development” value [5] was 40–60%. For the same molecule, the “total bilirubin levels compared to controls” value (Serum toxicity markers) was “significantly higher”, the “histological analysis of vital organs” value [10] was “no alteration in cell morphology or tissue architecture” and the “% of time mice awake in 24 h period” value ([6]; 15 mg kg^−1 oral) was “slightly greater sedative effect compared to liposomal treatment”. For the same molecule, the “% of time mice awake in 24 h period” value ([6]; 50 mg kg^−1 oral) was 6%, the “onset of sedation after oral administration” value [6] was “Thirty to sixty minutes” and the persistence of sedation [6] was over 24 h. The body weight loss ([7]; Swiss Webster mice, following treatment) was 10%, the “loss of body weight” value [7] was 10% and the “LC3B and p62 protein levels” value (UACC 903 cells [4]) was “dose-dependent accumulation of LC3B and p62 proteins”. The “ΔΨmt − (cells that lost MMP)” value (UACC 903 cells [11]; 6 h 10 μM) was 19%, the “ΔΨmt − (cells that lost MMP)” value (UACC 903 cells [11]; 6 h 15 μM) was 28% and the “protection from cell death by NS-3694” value (UACC 903 cells [8]) was “partially protected”.

For `CCN(CC)CCCC(C)Nc1c2ccc(Cl)cc2nc2ccc(OC)cc12` (stereo not shown) [quinacrine, Mepacrine (Quinacrine) DiHCL], the “patients with stabilisation or decrease in the rate of disease progression” value (prostate cancer) is given as ~50 % of the patients.

For `OCCN1CCN(CCC=C2c3ccccc3Sc3ccc(C(F)(F)F)cc32)CC1` [Flupentixol, Flupenthixol diHCL], the “protection from cell death by NS-3694” value (UACC 903 cells [8]) was “partially protected”.

In the case of `CNCCCN1c2ccccc2CCc2ccccc21` [Desipramine, Desipramine HCL], the “reduction of tumour growth / tumour inhibition” value [3] is reported as 30%.

B1: TRAIL: positive control for caspase-dependent cell death (50 ng ml^−1) (protein, UniProt P50591 1-281, looked up)
Tumor necrosis factor ligand …: MAMMEVQGGPSLGQTCVLIVIFTVLLQSLCVAVTYVYFTNELKQMQDKYSKSGIACFLKEDDSYWDPNDEESMNSPCWQVKWQLRQLVRKMILRTSEETISTVQEKQQNISPLVRERGPQRVAAHITGTRGRSNTLSSPNSKNEKALGRKINSWESSRSGHSFLSNLHLRNGELVIHEKGFYYIYSQTYFRFQEEIKENTKNDKQMVQYIYKYTSYPDPILLMKSARNSCWSKDAEYGLYSIYQGGIFELKENDRIFVSVTNEHLIDMDHEASFFGAFLVG
With B1 the “effect of pan-caspase inhibitor z-VAD-fmk on cell death” value (UACC 903 cells [12]) was “protected cells from apoptosis”.
